Tests used:
[1] = test system: healthy non-diabetic subject; test: Insulin delivery through porated skin, finger stick blood glucose; format: in vivo, human
Source text: Insulin, like many compounds normally present in the healthy individual, is a polypeptide which must be maintained in individuals, such as diabetics who need exogenous insulin, at both a basal level and be given in a pulsatile bolus fashion in response to meals and the subject's activity levels. Currently this is achieved via subcutaneous injections of fast acting and slow acting formulations. Because of the molecular weight of insulin, typically ˜6000, it is not able to be delivered at clinically useful levels with traditional transdermal or transmucosal methods. However, by opening the micropores through the barrier layers of the skin or mucosa, a clear path is provided allowing the delivery of the insulin into the viable tissues wherein the interstitial fluid present in these tissues will allow diffusion (including osmotically driven) of the insulin to and into the lymph system and capillary bed, delivering clinically useful amounts. A concentrated insulin solution containing 3500 IU/ml of recombinant human insulin purchased from Boehringer-Mannhein Co., was applied in a reservoir to a porated of the subject's skin on the volar forearm covering 4 square cm. The healthy, person, non-diabetic, subject fasted for 14 hours prior to the start of the experiment. Intravenous and finger stick blood samples were drawn periodically prior to and after the delivery phase began and assayed for glucose, insulin and C-peptide.
The use of liposomes, lipid complexes, microspheres including nanospheres, PEGellated compounds (compounds combined with polyethylene glycol) and other microparticles as part of a drug delivery system is well developed for many different specific applications. In particular, when dealing with a compound which is easily broken down by the endogenous components in the body's tissues such as protease, nuclease, or carbohydrase enzymes in the skin, tissues, the macrophages or other cells present in the blood stream or lymph, increases in bio-availability and/or sustained […]. A repeat of this procedure with the addition of ultrasound operating at 44 khz, and 0.2 watts/square cm indicated a more rapid delivery of the insulin as evidenced by the subject's glucose levels which dropped from 109 mg/dl to 78 mg/dl less than 30 minutes after the delivery began. As in the case of example 45, for heparin delivery, a low current iontophoretic system can be coupled with the micropores to facilitate a greater flux rate and provide the ability to modulate this flux rate by varying the current, allowing a delivery on demand type of system to be built. Previous work with insulin has typically shown that relatively high iontophoretic currents are required to overcome the strong barrier properties of the intact stratum corneum. […]

[2] = Morphine delivery through porated volar forearm with positive pressure gradient, venous blood morphine; settings: solution on porated volar forearm
Source text: A solution of morphine is applied to a porated area on the volar forearm of the human subjects. A positive pressure gradient is used to provide a basal delivery rate of the morphine into the body, as determined by assay of venous blood draws at appropriate time intervals for the presence of morphine. […] Upon demand, an additional pressure bolus is applied to result in a spike in the delivery of the morphine. The additional pressure bolus is achieved in one test by use of ultrasound; or in another experiment by the use of a pressure spike.

healthy male volunteers = test: Alprostadil delivery through micropores on the penis shaft with ultrasonic transducer, clinical responses; format: in vivo, human; settings: both subjects
Description: Alprostadil, or PGE1, is a prostaglandin used therapeutically to treat male erectile dysfunction via it's vasodilator behavior. The standard delivery mode for this drug is a direct injection into the base of the penis or via a suppository inserted into the urethra. A set of experiments were conducted with two healthy male volunteers. […] A concentrated solution of alprostadil was placed in a small reservoir patch placed on the poration site, an ultrasonic transducer was then placed on the top of the reservoir and activated and the subject's erectile and other clinical responses were recorded on video tape. Both subjects developed a significant amount of engorgement of the penis, estimated as achieving 70% of more of a full erection at the dose applied. In addition, a malar flush response to the systemic levels of the drug delivered was observed. […] Both the erectile response and the malar flush provide evidence of the delivery of a clinically active amount of the drug, a well know vasodilator.

[3] = test system: volar forearm of a healthy volunteer; test: Heparin delivery through micropores, passive or with iontophoresis, with microscopic examination of the site
Description: A heparin solution was applied to skin porated to a depth of approximately 100 μm, allowing either passive diffusion or coupled with iontophoresis (about 1 mA/cm^2) that was applied for a sufficient period of time to transport the heparin through the micropores into the underlying tissues. […] An experiment was conducted wherein a site on the volar forearm of a healthy volunteer was prepared by creating a matrix of 36 micropores within a 1 square cm area. A small reservoir containing a sodium heparin solution and the negative electrode for an iontophoretic system was attached to the site. The positive electrode was attached to the subject's skin some distance away using a hydrogel electrode obtained from Iomed, a commercial supplier of iontophoretic systems. The system was run for ten minutes at 0.2 milliamperes per square cm.

[4] = human

With insulin the “time to depression of glucose levels” value ([1]; 3500 IU/ml solution on 4 square cm porated volar forearm, passive) was “approximately 4 hours”, the “finger stick blood glucose after depression” value ([1]; 3500 IU/ml solution on 4 square cm porated volar forearm, passive, fasted 14 hours, from 100 mg/dl at the start, over a ten minute cycle) was 67 mg/dL and the “time to glucose drop after delivery began” value ([1]; with ultrasound at 44 khz and 0.2 watts/square cm) was “less than 30 minutes”. For the same molecule, the “glucose level after drop” value ([1]; with ultrasound at 44 khz and 0.2 watts/square cm, from 109 mg/dl) was 78 mg/dL.
For CN1CC[C@]23c4c5ccc(O)c4O[C@H]2[C@@H](O)C=C[C@H]3[C@H]1C5 [morphine], the “basal level of morphine in venous blood” value [2] was 3 to 6 ng/mL.
With CCCCC[C@H](O)/C=C/[C@H]1[C@H](O)CC(=O)[C@@H]1CCCCCCC(=O)O [alprostadil, Alprostadil] the “engorgement of the penis, estimated share of a full erection” value (healthy male volunteers; 12 to 36 micropores, roughly 100 microns deep, on 1 square cm, concentrated solution plus ultrasonic transducer) was ≥ 70% and the “malar flush response to systemic levels of the drug” value (healthy male volunteers; over a 30 to 60 minute delivery period) was “profound malar flush”.
With heparin the “clotting of red cells in collected ISF” value ([3]; 36 micropores in 1 square cm, iontophoresis 0.2 milliamperes per square cm for ten minutes) was “no clotting took place”, the “microscopic examination of the site” value ([3]; 36 micropores in 1 square cm, sodium heparin solution, iontophoresis 0.2 milliamperes per square cm for ten minutes) was “vasodilation of the capillaries” and the “microscopic examination of the in vivo site” value ([3]; skin porated to approximately 100 μm, passive diffusion and iontophoresis (about 1 mA/cm^2)) was “increased capillary dilation and permeability”.
With CN(C)c1ccc2nc3ccc(=[N+](C)C)cc-3sc2c1 [methylene blue, Methylene blue] the “lag time of pulse of indicator molecules on application of sonic energy” value [4] was < 0.1 s, the “shutoff lag of pulse of indicator molecules on turning off sonic energy” value [4] was < 0.1 s and the “level of dye solution in receiver medium (no visual indication of dye flux)” value ([4]; 5 min) was < 0.0015 % (v/v).

Source: US9579380B2, “Microporation of tissue for delivery of bioactive agents” (priority 1996, dated 2017)
